US20120220577A1, “GLYCINE B ANTAGONISTS” (Merz Pharma GmbH & Co KgaA, priority 2009, published 2012)

Legend:
[1] = target: T1, glycine binding pocket of the NMDA receptor (Rattus norvegicus, UniProt P35439); test: [3H]MDL-105,519 displacement studies (rat cortical membranes); settings: displacement of 2 nM [3H]-MDL-105,519, rat cortical membranes; read-out: NMDA-MDL 105519-r-CTX - IC50
T1 construct: For isolation of the cell membranes, the cortices are homogenized; from tissue; host or cells: rat cerebral cortex membranes (male Sprague-Dawley)

[2] = target: NMDA receptor glycine B site (Rattus norvegicus, UniProt P35439); test: Whole cell patch-clamp recordings, rat hippocampal neurons (NMDA/D-Serine currents); type: cell-based; settings: NMDA 200 μM + D-Serine 1 μM, -70 mV, read-out: NMDA-PC-r-HIC-NAM - IC50
Description: Antagonistic potencies of the test compounds are functionally evaluated using electrophysiological whole cell patch-clamp recordings and/or fluorometric intracellular Ca^2+-imaging (FLIPR) screens.
Cell preparation is performed as described by Parsons, et al. (Neuropharmacology, 1998, 37(6), 719-727). The female Sprague-Dawley rat is anaesthetised by placing in a saturated CO2-euthanasia chamber under further quiet CO2-influx. Under these conditions the rat loses consciousness after a few seconds and is then sacrificed by cervical dislocation. After opening the abdominal cavity, embryos (E20) are removed and stored in ice cold Ca^2+- and Mg^2+-free Hank's Buffered Salt Solution (pH 7.3), containing 4 g/l glucose (HBSS-CMF). Hippocampi are then isolated from the brains of at least 8 embryos after decapitation, transferred into ice cold HBSS-CMF and washed 3 to 4 times.
Hippocampi are pre-incubated for 8 min with a 0.66% trypsin (Sigma-Aldrich) and 0.1% (20 U/ml) DNAase solution (Sigma-Aldrich) in Ca^2+-free Phosphate Buffered Saline (PBS-CF) and washed 3 times with HBSS-CMF. Cells are then mechanically dissociated by trituration in a PBS-CF solution containing 0.05% (10 U/ml) DNAase and 0.3% of the trypsin inhibitor ovomucoid (all from Sigma-Aldrich). The cells are then centrifuged at 180×g for 10 minutes, and the cell pellet re-suspended in basal Minimum essential medium (MEM, Invitrogen, Karlsruhe, Germany), again carefully triturated to ensure maximal dissociation and finally plated in the flexiPERM inserts (Thermo Fisher Scientific, Langenselbold, Germany) at a density of 15×10^3 cells/cm^2 (0.5 ml/insert) onto poly-DL-ornithine (Sigma) and mouse laminin (Invitrogen) pre-coated plastic petri dishes. After 1 hour the cells become attached to the bottom of the dish and the inserts may be removed. The cells are then nourished with 2 ml MEM supplemented with 5% foetal calf serum (FCS) and 5% horse serum and incubated at 37° C. with 95% air and 5% CO2 at 95% humidity. After 4 days in vitro (DIV) further glial mitosis is inhibited by adding 10 μl of AraC (5 μM endconcentration). The medium is completely exchanged after an additional 2 DIV and again, but only partly (50%), after 8 DIV. The cells are used for electrophysiological recordings after 11-15 DIV.
Cells are visualised using an inverted microscope and selected for patching based upon their position and morphology. Voltage clamp recordings are made in the whole cell configuration of the patch clamp technique at a holding potential of −70 mV with the aid of an EPC-10 amplifier in combination with pipette manipulator. Patch clamp pipettes are pulled from borosilicate glass using a horizontal puller (P-97 Puller, Sutter Instruments, USA) and, when filled with intracellular solution, have resistances of 1-4 MΩ.
Solutions are delivered via a home-made gravity driven very fast perfusion system (<10 ms) including valves to switch flow on and off in combination with a stepper motor-driven double-barrelled theta glass application pipette in order to expose cells to either agonist-free or agonist-containing solutions in presence or absence of antagonist.
The intracellular solution used consists of: 120 mM CsCl, 10 mM EGTA, 1 mM MgCl2, 200 μM CaCl2, 10 mM glucose and 22 mM tetraethyl ammonium chloride (TEA-CL). The corresponding extracellular bath solution contains: 140 mM NaCl, 3 mM KCl, 10 mM glucose, 10 mM HEPES, 1.5 mM CaCl2 and 4.5 mM sucrose (all from Sigma-Aldrich) pH 7.3, and is supplemented with 0.3 μM tetrodotoxin (TTX, Tocris, Bristol, U.K.) to block voltage-activated sodium channels and 0.25 μM bicuculline (Sigma-Aldrich) to block GABAA receptors. […]

IC50 [1] [nM]	IC50 [2] [nM]	SMILES
228	169	O=C(COc1cc(C(=O)O)cc2cc(Cl)cc(Cl)c12)Nc1ccccc1OCC(=O)N1CCOCC1 [Example 54, 5,7-Dichloro-4-{[2-(2-morpholin-4-yl-2-oxo-ethoxy)-phenylcarbamoyl]-methoxy}-naphthalene-2-carboxylic acid]
203	65	O=C(COc1cc(C(=O)O)cc2cc(Cl)cc(Cl)c12)Nc1ccccc1OCc1nnn[nH]1 [Example 60, 5,7-Dichloro-4-{[2-(1H-tetrazol-5-ylmethoxy)-phenylcarbamoyl]-methoxy}-naphthalene-2-carboxylic acid]
83	59	O=C(O)COc1ccccc1CNC(=O)COc1cc(C(=O)O)cc2cc(Cl)cc(Cl)c12 [Example 59, 4-[(2-Carboxymethoxy-benzylcarbamoyl)-methoxy]-5,7-dichloro-naphthalene-2-carboxylic acid]
1010	288	COCC(Oc1cc(C(=O)O)cc2cc(Cl)cc(Cl)c12)C(=O)Nc1ccccc1OC (stereo not shown) [Example 74, 5,7-Dichloro-4-[2-methoxy-1-(2-methoxy-phenylcarbamoyl)-ethoxy]-naphthalene-2-carboxylic acid]
988	253	O=C(O)c1cc(OCC(=O)N2CCOc3c(CO)cccc32)c2c(Cl)cc(Cl)cc2c1 [Example 78, 5,7-Dichloro-4-[2-(8-hydroxymethyl-2,3-dihydro-benzo[1,4]oxazin-4-yl)-2-oxo-ethoxy]-naphthalene-2-carboxylic acid]
11.9	23	NCc1ccc(NC(=O)COc2cc(C(=O)O)cc3cc(Cl)cc(Cl)c23)c(OCC(=O)O)c1 [Example 34, 4-[(4-Aminomethyl-2-carboxymethoxyphenylcarbamoyl)-methoxy]-5,7-dichloronaphthalene-2-carboxylic acid]
55	50	O=C(O)COc1ccccc1NC(=O)COc1cc(C(=O)O)cc2cc(Cl)cc(Cl)c12 [Example 42, 4-[(2-Carboxymethoxyphenylcarbamoyl)-methoxy]-5,7-dichloronaphthalene-2-carboxylic acid]
405	198	CN(C(=O)COc1cc(C(=O)O)cc2cc(Cl)cc(Cl)c12)c1ccccc1C(=O)O [Example 20, 4-{[(2-Carboxyphenyl)-methylcarbamoyl]-methoxy}-5,7-dichloronaphthalene-2-carboxylic acid]
1190	542	O=C(O)c1cc(OCC(=O)N2CCCc3ccccc32)c2c(Cl)cc(Cl)cc2c1 [Example 50, 5,7-Dichloro-4-[2-(3,4-dihydro-2H-quinolin-1-yl)-2-oxo-ethoxy]-naphthalene-2-carboxylic acid]

Further lines, the compound ahead of its results:

SMILES	IC50 [1] [nM]	IC50 [2] [nM]
O=C(O)Cc1cccc(NC(=O)COc2cc(C(=O)O)cc3cc(Cl)cc(Cl)c23)c1 [Example 13, 4-[(3-Carboxymethylphenylcarbamoyl)-methoxy]-5,7-dichloronaphthalene-2-carboxylic acid]	457	178
CN(C(=O)COc1cc(C(=O)O)cc2cc(Cl)cc(Cl)c12)c1ccc(C(=O)O)cc1 [Example 14, 4-{[(4-Carboxy-phenyl)-methylcarbamoyl]-methoxy}-5,7-dichloronaphthalene-2-carboxylic acid]	4340	727
O=C(COc1cc(C(=O)O)cc2cc(Cl)cc(Cl)c12)NCc1ccccc1 [Example 18, 4-(Benzylcarbamoylmethoxy)-5,7-dichloro-naphthalene-2-carboxylic acid]	988	465
O=C(O)Cc1ccc(NC(=O)COc2cc(C(=O)O)cc3cc(Cl)cc(Cl)c23)cc1 [Example 7, 4-[(4-Carboxymethylphenylcarbamoyl)-methoxy]-5,7-dichloronaphthalene-2-carboxylic acid]	958	510
O=C(O)Cc1ccccc1NC(=O)COc1cc(C(=O)O)cc2cc(Cl)cc(Cl)c12 [Example 15, 4-[(2-Carboxymethylphenylcarbamoyl)-methoxy]-5,7-dichloronaphthalene-2-carboxylic acid]	503	356
O=C(COc1cc(C(=O)O)cc2cc(Cl)cc(Cl)c12)Nc1ccccc1C(=O)O [Example 3, 4-[(2-Carboxy-phenylcarbamoyl)-methoxy]-5,7-dichloro-naphthalene-2-carboxylic acid]	765	493
O=C(O)COc1cc(C(=O)O)cc2cc(Cl)cc(Cl)c12 [Example 1, 4-Carboxymethoxy-5,7-dichloronaphthalene-2-carboxylic acid]	1180	850
O=C(COc1cc(C(=O)O)cc2cc(Cl)cc(Cl)c12)Nc1ccccc1CO [Example 5, 5,7-Dichloro-4-[(2-hydroxymethylphenylcarbamoyl)-methoxy]-naphthalene-2-carboxylic acid]	562	258
